In patent publication US20110028509A1, “Sulfonamides” (MERCK SERONO SA, priority 2008, published 2011):

Assays:
[1] = target: T1, CXCR3 (Homo sapiens, UniProt P49682); test: Radioligand binding, scintillation proximity assay ([125I]IP-10 or [125I]I-TAC competition) on CHO-CXCR3 cell membranes; parameters: host or cells: CHO cells stably expressing hCXCR3; settings: [125I]IP-10, human CXCR3 cell membranes, Cheng-Prusoff; read-out: Binding Ki (μM) IP10
T1 sequence (P49682 1-368): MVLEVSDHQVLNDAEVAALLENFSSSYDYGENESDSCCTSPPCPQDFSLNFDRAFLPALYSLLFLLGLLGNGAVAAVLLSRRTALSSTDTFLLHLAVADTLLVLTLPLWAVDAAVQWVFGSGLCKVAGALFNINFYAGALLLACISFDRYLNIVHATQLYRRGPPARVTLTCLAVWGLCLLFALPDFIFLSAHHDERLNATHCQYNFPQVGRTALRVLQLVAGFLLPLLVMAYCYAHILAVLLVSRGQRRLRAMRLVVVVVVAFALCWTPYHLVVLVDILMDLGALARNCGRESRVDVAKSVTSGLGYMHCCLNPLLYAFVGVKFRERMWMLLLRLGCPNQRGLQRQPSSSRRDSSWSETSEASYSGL
Description: Human chinese hamster ovary (CHO) cell line stably expressing hCXCR3 was purchased from Euroscreen (Belgium) and culture in HAM's F12 (Invitrogen) containing 10% heat inactivated fetal calf serum (Cancerra, Australia), 50 units ml−1 penicillin, 50 μml−1 streptomycin, (Invitrogen, USA) and 400 μg/ml geneticin (G418) (Calbiochem, San Diego), according to the manufacturer.
CHO cells expressing the human CXCR3 were disrupted by nitrogen cavitation (Parr Instruments, USA) at 4° C., 800 p.s.i. for 30 min in 50 mM Tris-HCl pH 7.5, 2 mM EDTA, 250 mM Sucrose and protease inhibitors (Roche). Cell membranes were prepared by differential centrifugation (200×g for 10 min, then 100000×g for 60 min). Membranes pellets were re-suspended in 50 mM Tris-HCL pH 7.4, 1 mM EDTA, 10 mM MgCl2, 250 mM sucrose and inhibitor of proteases. Purified CHO-CXCR3 cell membranes were frozen in liquid nitrogen and stored at −80° C.
A scintillation proximity assay was used for radioligand competition and saturation binding assays. For each assay point, 1 to 5 μg of human CXCR3 cell membranes were incubated in a final volume of 100 μl in 96 well plates (Corning, USA) for 120 minutes with shaking at room temperature in presence of 100 μg of wheat germ agglutinin-coated scintillation proximity assay beads (WGA-SPA, RPNQ0001, GE Healthcare), 0.05-0.1 nM [125I]I-TAC (Perkin Elmer, 1366Cie/mmol) or 0.1 nM [125I]IP-10 (Perkin Elmer, 2200 Cie/mmol) in binding buffer (50 mM HEPES/KOH pH 7.4, 10 mM MgCl2, 1 mM CaCl2, 0.1% bovine serum albumin (BSA), 100 mM NaCl with protease inhibitor cocktail tablets (Roche). Assay was performed in presence of 1% dimethylsulphoxide (Me2SO). Binding activity was determined using a 1450 Micro-beta scintillation counter (Wallac, UK). Ki values were calculated using the Cheng-Prusoff equation (Cheng and Prusoff, 1973) and represent the average of at least three independent dose response experiments.

[2] = target: T1, CXCR3; test: Chemotaxis assay IP10, L1.2 recombinant cells expressing hCXCR3; format: cell-based; settings: L1.2 hCXCR3 cells, IP10 around 0.3 nM, 4 hours
Description: Human CXCR3 cDNA was amplified by PCR from a human cells cDNA library (Clontech) and subcloned into pcDNA3.1 (Invitrogen). Murine pre-B L1.2 cells were transfected with hCXCR3-pcDNA3.1 and were grown at 37° C., 5% CO2 in RPMI 1640 medium (Invitrogen, USA) supplemented with 5% heat inactivated fetal calf serum (Cancerra, Australia), 2 mM glutamine (Invitrogen), 50 units ml−1 penicillin, 50 μml−1 streptomycin. Stable transfectant clonal populations were selected using 800 μg/ml geneticin.
L1.2 recombinant cells expressing the receptor hCXCR3 were maintained in culture in RPMI 1640 (invitrogen), 5% Foetal Bovine Serum (invitrogen), 2 mM glutamine(invitrogen), 50 u/ml penicillin/streptomycin (invitrogen), at 37° C.-5% CO2—in an H2O saturated incubator. In order to stimulate the expression of the receptor, cells were incubated overnight with 5 mM butyric acid (Sigma)
This mix of cells/compounds was then incubated at 37° C.-5% CO2—in an H2O saturated incubator during 30 minutes. Cells were then dispensed as a drop on each corresponding wells of the chemotaxis system. Cell migration was then induced at 37° C.-5% CO2—in an H2O incubator during 4 hours. Filters were then removed and cells that had migrated were transferred in a black plate (Costar). The plates were stored overnight at −80° C. Cell migration ratio was calculated using the cyquant dye (Molecular Probes-C7026).

[3] = target: T1, CXCR3; test: CXCR3 Ca2+ mobilization (FLIPR), stable hCXCR3-CHO cell line, I-TAC stimulated; format: cell-based; parameters: host or cells: CHO cells stably expressing hCXCR3; settings: hCXCR3-CHO cells, I-TAC 100 nM stimulated Ca2+ response; read-out: Ca-ITAC
Method in brief: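 CHO cells stably expressing hCXCR3, grown 18 hours after plating, loaded with calcium indicator dye 60 minutes; compounds equilibrated 20 minutes at room temperature. Fluorescence change evoked by 100 nM I-TAC read on FLIPR; activity expressed as percent of I-TAC response without compound (100%).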

[4] = target: T1, CXCR3; test: Chemotaxis assay ITAC (CXCL11), L1.2-CXCR3 cells; format: cell-based; parameters: expressed in transfected cells; settings: 1 nM CXCL11 (I-TAC), 4 hours
Method in brief: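 Murine pre-B L1.2 cells stably expressing human CXCR3, pretreated 24 h with 5 mM butyric acid, preincubated with compound 30 min at 37 °C in 1% DMSO. Migration toward 1 nM CXCL11 (also with compound) through 8 μm filters for 4 h at 37 °C; migrated cells counted with CyQuant GR dye.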

SMILES	Ki [1] [µM]	IC50 [2] [µM]	IC50 [3] [nM]	IC50 [4] [nM]
O=S(=O)(c1ccc(Cl)cc1)N(Cc1ccc(-c2nnn[nH]2)cc1)Cc1ccccn1 [Example 16, 4-chloro-N-(pyridin-2-ylmethyl)-N-[4-(1H-tetrazol-5-yl)benzyl]benzenesulfonamide]	0.092	0.496		
O=C(NCC1CC1)c1ccc(CN(Cc2ccccn2)S(=O)(=O)c2ccc(Cl)cc2)cc1 [Example 5, 4-{[[(4-chlorophenyl)sulfonyl](pyridin-2-ylmethyl)amino]methyl}-N-(cyclopropylmethyl)benzamide]	0.168	0.2		
CCOc1ccc(S(=O)(=O)N(Cc2ccccc2)Cc2ccc(C(=O)NCC3CC3)cc2)cc1 [Example 18, 4-{[Benzyl-(4-ethoxy-benzenesulfonyl)-amino]-methyl}-N-cyclopropylmethylbenzamide]	0.78			1680
N#Cc1ccc(S(=O)(=O)N(Cc2ccc(C(=O)NC3(c4ccccc4)CC3)cc2)Cc2ccccn2)cc1 [Example 44]	0.01	0.013	268	33
CCOc1ccc(S(=O)(=O)N(Cc2ccc(-c3nnn[nH]3)cc2)Cc2ccccn2)cc1 [Example 42, 4-Ethoxy-N-(pyridin-2-ylmethyl)-N-[4-(2H-tetrazol-5-yl)benzyl]benzenesulfonamide]	0.161		520	1040
O=C(NS(=O)(=O)c1cccc(Cl)c1)c1ccc(CN(Cc2ccccn2)S(=O)(=O)c2ccc(Cl)cc2)cc1 [Example 13, N-[(3-chlorophenyl)sulfonyl]-4{[[(4-chlorophenyl)sulfonyl](pyridin-2-ylmethyl)amino]methyl}benzamide]	0.066	0.138		

Now from value to compound:

Ki [1] [µM]	IC50 [2] [µM]	IC50 [3] [nM]	IC50 [4] [nM]	SMILES
0.123				O=C(NCc1cccc(Cl)c1)c1ccc(CN(Cc2ccccn2)S(=O)(=O)c2ccc(Cl)cc2)cc1 [Example 6, N-(3-chlorobenzyl)-4-{[[(4-chlorophenyl)sulfonyl](pyridin-2-ylmethyl)amino]methyl}benzamide]
0.299	0.192			O=C(NCc1cccs1)c1ccc(CN(Cc2ccccc2)S(=O)(=O)c2ccc(Cl)cc2)cc1 [Example 7, 4-({benzyl[(4-chlorophenyl)sulfonyl]amino}methyl)-N-(2-thienylmethyl)benzamide]
0.155	0.238			O=C(NC1(c2ccccc2)CC1)c1ccc(CN(Cc2ccccc2)S(=O)(=O)c2ccc(Cl)cc2)cc1 [Example 10, 4-({benzyl[(4-chlorophenyl)sulfonyl]amino}methyl)-N-(1-phenylcyclopropyl)benzamide]
0.197		530		CCOc1ccc(S(=O)(=O)N(Cc2ccccc2)Cc2ccc(C(=O)NCc3ccccc3)cc2)cc1 [Example 33]
0.1	0.404			O=C(NS(=O)(=O)Cc1ccccc1)c1ccc(CN(Cc2ccccn2)S(=O)(=O)c2ccc(Cl)cc2)cc1 [Example 11, N-(benzylsulfonyl)-4-{[[(4-chlorophenyl)sulfonyl](pyridin-2-ylmethyl)amino]methyl}benzamide]
0.015	0.025	90	53	O=C(NC1(c2ccccc2)CC1)c1ccc(CN(Cc2ccccn2)S(=O)(=O)c2ccc(Cl)cc2)cc1 [Example 40, 4-{[(4-Chloro-benzenesulfonyl)-pyridin-2-ylmethyl-amino]-methyl}-N-(1-phenyl-cyclopropyl)-benzamide]
1.65	0.865			O=C(NS(=O)(=O)c1cccc(Cl)c1)c1ccc(CN(Cc2ccccc2)S(=O)(=O)c2ccc(Cl)cc2)cc1 [Example 12, N-[(3-chlorophenyl)sulfonyl]-4-{[benzyl[(4-chlorophenyl)sulfonyl]amino]methyl}benzamide]
0.64	0.369			O=C(NCc1cccc(Cl)c1)c1ccc(CN(Cc2ccccc2)S(=O)(=O)c2ccc(Cl)cc2)nc1 [Example 8, 6-({benzyl[(4-chlorophenyl)sulfonyl]amino}methyl)-N-(3-chlorobenzyl)nicotinamide]
